For one data set, the system named is EC and IC rats. The experiment in a line: Hidden platform water maze task and probe test in EC and IC rats. Type of data set: in vivo, Sprague Dawley rats. The note with it: 0.1% UMP diet. How it is done: Behavioral training was carried out between 10:00 AM-2:00 PM, in a blinded manner. […] A different starting point was used on each trial such that each starting point was used once each day. […] After mounting the platform, rats remained on the platform for 20 seconds. Following each trial, animals were removed from the maze and placed in a holding cage for a 30 second inter-trial interval (ITI). The latency to mount the escape platform was used as a measure of task acquisition.
For this, the platform was removed and the swim path and time spent searching in the quadrant of the pool that previously contained the platform were measured over 60 s. This provides a measurement for the retention of spatial memory and indicates whether a spatial strategy was used during hidden platform training.

For a further data set, the system named is gerbils. Kind of data set: Working memory and reference memory assay in gerbils. Type of data set: in vivo. The following applies: 0.1% UMP diet for four weeks. The source says:
Groups of ten gerbils fed control or 0.1% UMP diet for four weeks and trained to successfully find all of the food pellets as described above were then given a modified test in which only two arms of the maze (but always the same two) contained food pellet rewards. In this test, a working memory error is one in which a gerbil revisits an arm from which it has already taken the pellet that day.

For another data set, the system named is Aging rats. Kind of data set: Morris water maze in aging rats on UMP diet. The format is in vivo. The note with it: 2.5% diet for six weeks. The source says: Aging rats (18 months, 500 g) were fed a control diet or a diet containing 2.5% UMP diets for six weeks. They were then shown a hidden platform in a six-foot diameter pool of water, placed somewhere in each of the four quadrants of the pool in turn, and were allowed 90 seconds in each trial to attempt to relocate the platform by swimming, and the swimming time “mean escape latency” recorded. The set of four trials was repeated on each of four consecutive days. The platform was in the same place each day. This test, known as the Morris water maze, is an indicator of spatial memory.

The nature of data set [1]: Plasma uridine levels after oral UMP in humans. The format is in vivo. The note with it: 500, 1000 or 2000 mg UMP orally; baseline and 1, 2, 4, 8 hr. The method, then: 1-milliliter (mL) samples of heparinized plasma were spiked with 1 μg fluoro-uridine for use as an internal standard, then deproteinized by adding methanol (5 mL).
All steps were performed at 4° C. Boronate affinity columns (Affigel-601, Bio-Rad) were primed with two 5-mL ammonium acetate washes, samples were applied, and columns were washed again with ammonium acetate, after which the nucleosides were eluted with 0.1 N formic acid (7 mL). Eluates were lyophilized, then reconstituted in 100 μL water for HPLC analysis.
HPLC analysis was performed using a Beckman System Gold apparatus (Beckman Instruments) equipped with a Rainin Dynamax Microsorb C18 column (3 μm packing; 4.6×100 mm) at room temperature. The standard HPLC method is described in Lopez-Coviella et al, (J. Neurochem 65: 889-894, 1995). For modified HPLC, an isocratic elution buffer was used containing 0.004 N potassium phosphate buffer (pH 5.8) and 0.1% methanol instead of formic acid, flowing at 1 mL/min and heated to 35°.
Eight healthy subjects (5 male, 3 female, 27-67 years old) were instructed to fast overnight and given sequentially increasing doses (500, 1000, and 2000 mg) of disodium UMP (Numico, Wageningen, NL) at 7-8 AM on each of three days, separated by at least a three-day washout period. All subjects were given lunch. Blood samples were drawn over an eight-hour period into heparinized tubes. […]

Data set [2] deals with acetylcholine release from neurons in the corpus striatum. The experiment in a line: Basal acetylcholine release in corpus striatum of rats on dietary UMP. The format is in vivo.
The test system of another data set is neurofilament-70 (NF-70). The experiment in a line: Western blot of NF-70 in striatum of aged rats on UMP diet. The format is in vivo. How it is done:
(§1) Data were represented according to UMP treatment of six to sixteen measurements each group (means±S.E.M.). One-way ANOVA with Turkey's HSD post hoc tests were used to compare the difference among the treatments the Newman-Keuls multiple range test was used for the data in FIG. 13.
(§2) Striatal tissues were placed in Eppendorf tubes containing 200 μl lysis buffer (60 mM Tris-HCl, 4% SDS, 20% glycerol, 1 mM dithiothreitol, 1 mM AEBSF, 8 μM aprotinin, 500 μM bestatin, 15 μM E64, 200 μM leupeptin, 10 μM pepstatin A). The samples were sonicated, boiled (10 min), and centrifuged (14,000 g for 1 min at room temperature) The supernatant fluid was transferred to a clean tube, and total protein content was determined using the Bicinchoninic Acid assay (Sigma, St. Louis, Mo.).
(§3) Equal amounts of protein (40 μg protein/lane) were loaded for sodium dodecyl sulfate-polyacrylamide gel electrophoresis (4-15% SDS PAGE; Bio-Rad, Hercules, Calif.). Prior to gel electrophoresis, bromphenol blue solution (0.07%) was added to each sample. Proteins were separated, transferred onto polyvinylidene difluoride (PVDF) membranes (Immobilon-P, Millipore), and blocked with 5% bovine serum albumin (Tris-buffered saline/0.15% Tween 20) for 1 h. After 3 10 min rinses in Tris-buffered saline (TBST), blots were incubated in TBST with various antibodies against the proteins of interest, including NF-70, NF-M (1: 2000, 1: 5000, respectively; Calbiochem, La Jolla, Calif.) at 4° C. overnight on an orbital shaker. […] Films were digitized using a Supervista S-12 scanner with a transparency adapter (UMAX Technologies, Freemont, Calif.). Analysis was performed using the public domain NIH Image program (NIH V.1.61).
For orientation: A western blot detects proteins with antibodies after separation by electrophoresis.

Data set [3] deals with dopamine (DA) release in striatal dialysate. The experiment in a line: In vivo microdialysis of striatal dopamine and metabolites in aged rats on UMP diet. More on the design: species or system Fischer 344 rats. The note with it: control vs. UMP-1 week vs. UMP-6 weeks, 2.5% UMP diet.
A further data set has as its system neurofilament-M (NF-M). The experiment in a line: Western blot of NF-M in striatum of aged rats on UMP diet. The format is in vivo. How it is done:
as §1, §2, §3

Each structure is given as a SMILES string.

As to `O=c1ccn([C@@H]2O[C@H](COP(=O)([O-])[O-])[C@@H](O)[C@H]2O)c(=O)[nH]1.[Na+].[Na+]` [UMP, uridine-5′-monophosphate disodium], the “Rate of acquisition of hidden platform task” value in the data set on EC and IC rats (EC rats, vs EC-CONT, P<0.09) is on record as “acquired the task at a faster rate”. In addition, the “Rate of acquisition of hidden platform task” value in the data set with EC and IC rats (IC rats, vs IC-CONT, P<0.05) is on record as “acquired the task at a significantly faster rate”. Also, the “Time in correct quadrant, 60 s probe test” value in the data set on EC and IC rats (IC rats, vs IC-CONT, p<0.01) was “spent significantly more time in the correct quadrant”. For the same compound, in the data set on gerbils, the Reference memory errors entry was “reduced numbers” and the Working memory errors result is “reduced numbers”. Further, the “Time required to reach the platform (mean escape latency)” value in the data set with Aging rats is on record as “statistically significant reduction in the time required to reach the location of the platform”. Moreover, the Plasma uridine levels result in data set [1] is “increased in response to oral UMP in a dose-dependent fashion”. The “Basal release of acetylcholine in corpus striatum” value in data set [2] was “increase the basal release”. In addition, the “NF-70 level compared to control group” value in the data set on neurofilament-70 (NF-70) (UMP diet 1 week) is on record as “did not increase”. Besides, the “NF-70 level, of control values” in the data set with neurofilament-70 (NF-70) (UMP diet 6 weeks, striatum, p<0.05) is 182±25%. In addition, the “NF-70 level in striatum, of control values (second statement)” value in the data set on neurofilament-70 (NF-70) (feeding time not given) is given as 204±36%. For the same compound, in data set [3], the “Basal DA levels in dialysate” value was “did not affect”, the “Basal DOPAC levels in dialysate” value was “no effects” and the “Basal HVA levels in dialysate” value is given as “no effects”. The “NF-M level compared to control group” value with neurofilament-M (NF-M) (UMP diet 1 week) is “did not increase”. For the same compound, the “NF-M level, of control values” in the data set with neurofilament-M (NF-M) (UMP diet 6 weeks, striatum, p<0.01) came to 221±34%. In the data set with neurofilament-M (NF-M) (feeding time not given), the “NF-M level in striatum, of control values (second statement)” value is listed as 221±34%.

Source of the values: patent publication US8518882B2, “Methods and compositions for ameliorating or inhibiting decline in memory or intelligence or improving same” (priority 1998, dated 2013).
